Drawing on patent US12084453B2, “Bicyclic amines as CDK12 inhibitors” (Incyte Corporation, priority 2021, dated 2024), this text covers IC50 for 23 molecules.

This assay deals with T1, CDK12 complexed with Cyclin K (Homo sapiens, UniProt Q9NYV4).
T1 construct: GST (N); host or cells: baculovirus expression system
The assay is described as follows: CDK enzymatic assay (HTRF, LANCE Ultra kinase assay). To be noted: 60 minutes pre-incubation with compound; 1 mM ATP. The assay is classed as biochemical. The method, then:
The following activity of the CDK enzymes in complex with their respective cyclins we assayed: CDK1 complexed with Cyclin B1; CDK2 complexed with Cyclin E1; CDK4 complexed with Cyclin D1; CDK6 complexed with Cyclin D1; CDK6 complexed with Cyclin D3; CDK9 complexed with Cyclin T1; CDK7 complexed with Cyclin H/MAT1; CDK2 complexed with Cyclin A2; CDK5 complexed with p35; CDK12 complexed with Cyclin K; CDK13 complexed with Cyclin K. These in vitro enzyme activity are assayed using homogeneous time-resolved energy transfer (HTRF), which measures phosphorylation of a peptide substrate. The LANCE® Ultra kinase assay (PerkinElmer) uses a ULight™-labeled EIF4E-binding protein 1 (THR37/46) peptide (DYSTTPGGTLFSTTPGTRI (SEQ ID NO: 1)) substrate and a Europium-labeled anti-phospho-4E-BP1 antibody (CDK2, CDK1, CDK4, CDK6, CDK9, CDK12, CDK13) or ULight™-labeled Myelin Basic Protein peptide (VTPRTPPP (SEQ ID NO: 2)) substrate and a Europium-labeled anti-phospho-MBP antibody (CDK7). Each CDK enzyme activity assays utilized human CDK co-expressed as N-terminal GST-tagged protein with its full length cyclin partner using a baculovirus expression system.
Enzyme was pre-incubated with compounds for 30 minutes (CDK1,2,4,6,9) or 60 minutes (CDK7, CDK12, CDK13) prior to addition of ATP and Ulight-peptide (1 mM and 50 nM final, respectively), in assay buffer containing 50 mM HEPES pH 7.5, 1 mM EGTA, 10 mM MgCl2, 2 mM DTT, 0.05 mg/mL BSA, and 0.01% Tween 20. The reaction was then incubated for 60-90 minutes at room temperature. The reactions were stopped by the addition of EDTA and Europium labeled antibody, for a final concentration of 15 mM and 1.0-1.5 nM, respectively. HTRF signals were read after 15-120 minutes. A ratio of fluorescence transferred to the labeled substrate (665 nm) relative to fluorescence of the Europium donor (620 nm) represents the extent of phosphorylation. Ratios for treated wells were normalized to DMSO only (100% activity) and no enzyme (0% activity) controls. Normalized data was analyzed using a three or four parameter dose response curve to determine IC50 for each compound and are shown in Table A. Control reference inhibitors were included on each plate.
(In general: In TR-FRET formats the signal depends on donor and acceptor labels being close together.)

T1 sequence (Q9NYV4 whole entry): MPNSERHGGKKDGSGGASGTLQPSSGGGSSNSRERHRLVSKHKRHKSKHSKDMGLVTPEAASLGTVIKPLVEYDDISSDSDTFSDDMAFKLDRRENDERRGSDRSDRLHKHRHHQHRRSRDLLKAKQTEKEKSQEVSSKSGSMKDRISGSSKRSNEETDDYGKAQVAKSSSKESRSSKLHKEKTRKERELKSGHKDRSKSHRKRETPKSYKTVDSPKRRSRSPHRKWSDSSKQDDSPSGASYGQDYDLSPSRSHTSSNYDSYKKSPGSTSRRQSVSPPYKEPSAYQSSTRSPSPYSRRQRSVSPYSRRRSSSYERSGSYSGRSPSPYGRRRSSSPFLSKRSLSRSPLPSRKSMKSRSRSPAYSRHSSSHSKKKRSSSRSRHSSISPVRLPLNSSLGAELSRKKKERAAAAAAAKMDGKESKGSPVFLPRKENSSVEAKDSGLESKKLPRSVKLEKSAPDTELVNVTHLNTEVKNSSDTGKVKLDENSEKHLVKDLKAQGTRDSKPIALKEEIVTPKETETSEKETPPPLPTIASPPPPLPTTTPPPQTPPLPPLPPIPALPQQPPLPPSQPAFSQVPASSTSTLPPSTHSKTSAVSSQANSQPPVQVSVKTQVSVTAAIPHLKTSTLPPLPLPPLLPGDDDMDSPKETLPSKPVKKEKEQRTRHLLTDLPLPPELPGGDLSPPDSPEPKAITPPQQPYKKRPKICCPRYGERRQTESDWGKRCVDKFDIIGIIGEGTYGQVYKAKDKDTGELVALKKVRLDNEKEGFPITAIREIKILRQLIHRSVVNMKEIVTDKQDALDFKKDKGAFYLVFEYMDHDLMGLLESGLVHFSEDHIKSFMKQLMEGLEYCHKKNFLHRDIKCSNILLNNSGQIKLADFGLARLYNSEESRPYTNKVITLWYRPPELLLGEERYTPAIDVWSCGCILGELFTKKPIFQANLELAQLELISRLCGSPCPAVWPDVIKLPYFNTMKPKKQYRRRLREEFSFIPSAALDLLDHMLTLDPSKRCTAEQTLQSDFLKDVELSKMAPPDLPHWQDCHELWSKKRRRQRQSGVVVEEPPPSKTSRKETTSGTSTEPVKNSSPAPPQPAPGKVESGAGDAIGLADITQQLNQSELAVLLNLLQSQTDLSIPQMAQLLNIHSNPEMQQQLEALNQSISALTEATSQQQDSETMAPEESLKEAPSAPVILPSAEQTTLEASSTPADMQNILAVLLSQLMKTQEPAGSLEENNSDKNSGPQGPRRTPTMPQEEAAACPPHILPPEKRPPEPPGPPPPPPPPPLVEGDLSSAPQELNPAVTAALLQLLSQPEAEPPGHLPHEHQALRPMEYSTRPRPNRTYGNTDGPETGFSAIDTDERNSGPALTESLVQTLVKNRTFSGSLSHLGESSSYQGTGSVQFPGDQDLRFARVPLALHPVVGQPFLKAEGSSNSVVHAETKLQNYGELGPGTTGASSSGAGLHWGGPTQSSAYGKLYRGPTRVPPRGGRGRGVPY
T1 sequence (O75909 whole entry partner): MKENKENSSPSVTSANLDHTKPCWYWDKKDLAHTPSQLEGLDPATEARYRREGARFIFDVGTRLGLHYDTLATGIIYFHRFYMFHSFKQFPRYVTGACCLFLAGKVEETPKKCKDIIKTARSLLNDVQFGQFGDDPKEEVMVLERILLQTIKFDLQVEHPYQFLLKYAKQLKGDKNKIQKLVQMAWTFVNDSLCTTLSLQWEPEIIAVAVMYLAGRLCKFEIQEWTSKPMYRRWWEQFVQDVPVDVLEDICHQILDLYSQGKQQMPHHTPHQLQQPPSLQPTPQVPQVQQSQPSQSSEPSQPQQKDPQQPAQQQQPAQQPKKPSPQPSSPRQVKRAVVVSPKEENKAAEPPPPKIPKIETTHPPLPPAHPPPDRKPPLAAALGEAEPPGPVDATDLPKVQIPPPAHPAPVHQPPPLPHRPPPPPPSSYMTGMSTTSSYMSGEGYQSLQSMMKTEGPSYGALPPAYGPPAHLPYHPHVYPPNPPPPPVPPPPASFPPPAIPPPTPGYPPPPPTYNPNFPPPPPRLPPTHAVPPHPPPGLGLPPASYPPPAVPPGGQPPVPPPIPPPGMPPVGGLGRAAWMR

The IC50 is the concentration that inhibits the measured activity by half. For `C=CC(=O)Nc1ccc(C(=O)N2CC(Nc3nc4cnc(-c5cn[nH]c5)c(OC(C)C)n4n3)C2)cc1` [Example 1, N-(4-(3-((5-Isopropoxy-6-(1H-pyrazol-4-yl)-[1,2,4]triazolo[1,5-a]pyrazin-2-yl)amino)azetidine-1-carbonyl)phenyl)acrylamide], the IC50 was less than 0.05 µM.
In the case of `C=CC(=O)Nc1ccc2sc(N3CCC[C@@H](Nc4nc5ccc(-c6cn[nH]c6)c(C(C)C)n5n4)C3)nc2c1` [Example 27, (R)-N-(2-(3-((5-Isopropyl-6-(1H-pyrazol-4-yl)-[1,2,4]triazolo[1,5-a]pyridin-2-yl)amino)piperidin-1-yl)benzo[d]thiazol-5-yl)acrylamide], the IC50 was less than 0.05 µM.
On to `C=CC(=O)Nc1ccc(O[C@H]2CCC[C@@H](Nc3nc4ccc(-c5cn[nH]c5)c(N5CCCCC5)n4n3)C2)cc1` [Example 16, N-(4-(((1S,3R)-3-((5-(Piperidin-1-yl)-6-(1H-pyrazol-4-yl)-[1,2,4]triazolo[1,5-a]pyridin-2-yl)amino)cyclohexyl)oxy)phenyl)acrylamide], for which the IC50 was less than 0.05 µM.
Consider `C=CC(=O)Nc1ccc2sc(N3CCC[C@@H](Nc4nc5ccc(-c6cn[nH]c6)c(C(F)(F)F)n5n4)C3)nc2c1` [Example 35, (R)-N-(2-(3-((6-(1H-pyrazol-4-yl)-5-(trifluoromethyl)-[1,2,4]triazolo[1,5-a]pyridin-2-yl)amino)piperidin-1-yl)benzo[d]thiazol-5-yl)acrylamide], for which the IC50 was less than 0.05 µM.
Regarding `C=C(F)C(=O)Nc1ccc(C(=O)N2CC[C@@H](Nc3nc4cc(-c5cn[nH]c5)ccn4n3)C2)cc1` [Example 31, (R)-N-(4-(3-((7-(1H-Pyrazol-4-yl)-[1,2,4]triazolo[1,5-a]pyridin-2-yl)amino)pyrrolidine-1-carbonyl)phenyl)-2-fluoroacrylamide], the IC50 is less than 0.05 µM.
On to `C=CC(=O)Nc1ccc(C(=O)N2CCC[C@@H](Nc3nc4ccc(-c5cn[nH]c5)c(N5CCOCC5)n4n3)C2)cc1` [Example 8, (R)-N-(4-(3-((5-Morpholino-6-(1H-pyrazol-4-yl)-[1,2,4]triazolo[1,5-a]pyridin-2-yl)amino)piperidine-1-carbonyl)phenyl)acrylamide], for which the IC50 was less than 0.05 µM.
`C=CC(=O)Nc1ccc(C(=O)N2CC[C@@H](Nc3nc4ccc(-c5cn[nH]c5)c(C(F)(F)F)n4n3)C2)cc1` [Example 30, (R)-N-(4-(3-((6-(1H-Pyrazol-4-yl)-5-(trifluoromethyl)-[1,2,4]triazolo[1,5-a]pyridin-2-yl)amino)pyrrolidine-1-carbonyl)phenyl)acrylamide]: the IC50 was less than 0.05 µM.
In the case of `C=CC(=O)Nc1ccc(C(=O)N2CCC(Nc3nc4c(OC)c(-c5cn[nH]c5)ncn4n3)CC2)cc1` [Example 2, N-(4-(4-((8-Methoxy-7-(1H-pyrazol-4-yl)-[1,2,4]triazolo[1,5-c]pyrimidin-2-yl)amino)piperidine-1-carbonyl)phenyl)acrylamide], the IC50 was less than 0.05 µM.
The value for `C=CC(=O)Nc1ccc2c(c1)C(=O)N([C@H]1CCC[C@@H](Nc3nc4ccc(-c5cn[nH]c5)c(C(C)C)n4n3)C1)C2` [Example 23, N-(2-((1S,3R)-3-((5-Isopropyl-6-(1H-pyrazol-4-yl)-[1,2,4]triazolo[1,5-a]pyridin-2-yl)amino)cyclohexyl)-3-oxoisoindolin-5-yl)acrylamide] was less than 0.05 µM; that for `C=CC(=O)Nc1cnc(N2CCC[C@@H](Nc3nc4ccc(-c5cn[nH]c5)c(C(C)C)n4n3)C2)c(C)c1` [Example 37, (R)-N-(6-(3-((5-isopropyl-6-(1H-pyrazol-4-yl)-[1,2,4]triazolo[1,5-a]pyridin-2-yl)amino)piperidin-1-yl)-5-methylpyridin-3-yl)acrylamide] was less than 0.05 µM; that for `C=CC(=O)Nc1ccc(C(=O)N2CCC[C@@H](Nc3nc4cnc(-c5cn[nH]c5)c(OC(C)C)n4n3)C2)c(F)c1` [Example 4, (R)-N-(3-Fluoro-4-(3-((5-isopropoxy-6-(1H-pyrazol-4-yl)-[1,2,4]triazolo[1,5-a]pyrazin-2-yl)amino)piperidine-1-carbonyl)phenyl)acrylamide] was less than 0.05 µM.
For `C=CC(=O)Nc1ccc2sc(N3CCC[C@@H](Nc4nc5ccc(-c6cn[nH]c6)c(C)n5n4)C3)nc2c1` [Example 29, (R)-N-(2-(3-((5-Methyl-6-(1H-pyrazol-4-yl)-[1,2,4]triazolo[1,5-a]pyridin-2-yl)amino)piperidin-1-yl)benzo[d]thiazol-5-yl)acrylamide], the IC50 is less than 0.05 µM.
For the molecule `C=CC(=O)Nc1ccc(C(=O)N2CC[C@@H](Nc3nc4ccc(-c5cn[nH]c5)c(C(C)C)n4n3)C2)cc1F` [Example 19, (R)-N-(2-Fluoro-4-(3-((5-isopropyl-6-(1H-pyrazol-4-yl)-[1,2,4]triazolo[1,5-a]pyridin-2-yl)amino)pyrrolidine-1-carbonyl)phenyl)acrylamide], the IC50 is less than 0.05 µM.
Consider `C=CC(=O)Nc1ccc(C(=O)N2CCC[C@@H](Nc3nc4ccc(-c5cn[nH]c5)c(N5CCCCC5)n4n3)C2)cc1` [Example 6, (R)-N-(4-(3-((5-(Piperidin-1-yl)-6-(1H-pyrazol-4-yl)-[1,2,4]triazolo[1,5-a]pyridin-2-yl)amino)piperidine-1-carbonyl)phenyl)acrylamide], for which the IC50 is less than 0.05 µM.
The value for `C=CC(=O)Nc1ccc(C(=O)N2CCC[C@@H](Nc3nc4ccc(-c5cn[nH]c5)c(N5CCCC5)n4n3)C2)cc1` [Example 7, (R)-N-(4-(3-((6-(1H-Pyrazol-4-yl)-5-(pyrrolidin-1-yl)-[1,2,4]triazolo[1,5-a]pyridin-2-yl)amino)piperidine-1-carbonyl)phenyl)acrylamide] was less than 0.05 µM; that for `C=CC(=O)Nc1ccc2c(c1)nc(N1CCC[C@@H](Nc3nc4ccc(-c5cn[nH]c5)c(C(C)C)n4n3)C1)n2C` [Example 28, (R)-N-(2-(3-((5-Isopropyl-6-(1H-pyrazol-4-yl)-[1,2,4]triazolo[1,5-a]pyridin-2-yl)amino)piperidin-1-yl)-1-methyl-1H-benzo[d]imidazol-5-yl)acrylamide] was less than 0.05 µM.
The value for `C=CC(=O)Nc1ccc(C(=O)N2CCC[C@@H](Nc3nc4ccc(-c5cn[nH]c5)c(OC5CCOCC5)n4n3)C2)cc1` [Example 15, (R)-N-(4-(3-((6-(1H-Pyrazol-4-yl)-5-((tetrahydro-2H-pyran-4-yl)oxy)-[1,2,4]triazolo[1,5-a]pyridin-2-yl)amino)piperidine-1-carbonyl)phenyl)acrylamide] was less than 0.05 µM.
For the molecule `C=CC(=O)Nc1ccc2c(c1)C(=O)N([C@H]1CCC[C@@H](Nc3nc4ccc(-c5cn[nH]c5)c(C)n4n3)C1)C2` [Example 22, N-(2-((1S,3R)-3-((5-Methyl-6-(1H-pyrazol-4-yl)-[1,2,4]triazolo[1,5-a]pyridin-2-yl)amino)cyclohexyl)-3-oxoisoindolin-5-yl)acrylamide], the IC50 is less than 0.05 µM.
Regarding `C=CC(=O)Nc1cnc(N2CCC[C@@H](Nc3nc4ccc(-c5cn[nH]c5)c(C(F)(F)F)n4n3)C2)c(C)c1` [Example 38, (R)-N-(6-(3-((6-(1H-pyrazol-4-yl)-5-(trifluoromethyl)-[1,2,4]triazolo[1,5-a]pyridin-2-yl)amino)piperidin-1-yl)-5-methylpyridin-3-yl)acrylamide], the IC50 is less than 0.05 µM.
The value for `C=C(F)C(=O)Nc1ccc(C(=O)N2CC[C@@H](Nc3nc4c(C)c(-c5cn[nH]c5)ccn4n3)C2)cc1` [Example 32, (R)-2-Fluoro-N-(4-(3-((8-methyl-7-(1H-pyrazol-4-yl)-[1,2,4]triazolo[1,5-a]pyridin-2-yl)amino)pyrrolidine-1-carbonyl)phenyl)acrylamide] was less than 0.05 µM; that for `CC#CC(=O)Nc1ccc(C(=O)N2CC[C@@H](Nc3nc4c(C)c(-c5cn[nH]c5)ccn4n3)C2)cc1` [Example 33, (R)-N-(4-(3-((8-Methyl-7-(1H-pyrazol-4-yl)-[1,2,4]triazolo[1,5-a]pyridin-2-yl)amino)pyrrolidine-1-carbonyl)phenyl)but-2-ynamide] was less than 0.05 µM.
`C=CC(=O)Nc1ccc(C(=O)N2CC[C@@H](Nc3nc4ccc(-c5cn[nH]c5)cn4n3)C2)cc1` [Example 11, (R)-N-(4-(3-((6-(1H-Pyrazol-4-yl)-[1,2,4]triazolo[1,5-a]pyridin-2-yl)amino)pyrrolidine-1-carbonyl)phenyl)acrylamide]: the IC50 was less than 0.05 µM.
Take `C=CC(=O)Nc1ccc(C(=O)N2CCC[C@@H](Nc3nc4c(OC)c(-c5cn[nH]c5)ncn4n3)C2)cc1` [Example 5, (R)-N-(4-(3-((8-Methoxy-7-(1H-pyrazol-4-yl)-[1,2,4]triazolo[1,5-c]pyrimidin-2-yl)amino)piperidine-1-carbonyl)phenyl)acrylamide]: the IC50 is less than 0.05 µM.
